This note sets out measurements from patent US20230040021A1 (priority 2019, published 2023).

For experiment [1], the system named is herpes gE antigen-specific IFN-γ. Particulars: CpG T1 10 + saponin 5 + gE 5 μg/mouse; FIG. 15.
Protocol: Experimental steps: on Day 7 after the immunization of mice, the spleen lymphocytes were prepared according to a conventional method, and the details were as follows: the spleens were taken aseptically by being cut with sterile forceps and scissors, and placed in a 70 μm cell strainer, which was placed in a plate containing 2 ml of pre-chilled 2% FBS (purchased from GIBCO)-PBS; the spleens were ground using a grinding rod, and the spleen cells entered the plate through the meshes to obtain a cell suspension, and then the suspension was filtered by a 40 μm cell strainer (purchased from BD) and put into a 50 ml sterile centrifuge tube by using a Pasteur pipet; it was centrifuged at 500×g at 4° C. for 5 min; the supernatant was discarded, and then 2 ml of 1×erythrocyte disruption agent (purchased from BD) was added to re-suspend the cells, and the resultant was allowed to stand for 5 min at 4° C., protected from light to disrupt the red blood cells; 10 ml of 2% FBS-PBS was added to terminate the erythrocyte disruption reaction; the resultant was centrifuged at 500×g at 4° C. for 5 min, the supernatant was discarded, and then 5 ml of 2% FBS-PBS was added to re-suspend the cells for later use.
C57BL/6(N) mice, female, 5 weeks old, 48 mice, purchased from Shanghai SLRC Laboratory Animal Co. Ltd.
2) QS-21 (CAS: NO. […]
The test system of experiment [2] is HBsAg antigen-specific IFN-γ. Details: species or system C57BL/6(N) mice. The note with it: mouse, in vivo.
For experiment [3], the system named is HBcAg antigen-specific IFN-γ. Details: species or system C57BL/6(N) mice. The note with it: mouse, in vivo.

Regarding QS-21 [QS21], in experiment [1], the “induced production level of gE-specific IFN-γ” value is “the best effect”.

Take “TCCATGACGTTCCTGACGTT (SEQ ID NO: 5) [CpG 1826]”: the “immune effect: induced production level of HBsAg-specific IFN-γ” value (“immune effect … of HBsAg-specific IFN-γ” for short) in experiment [2] is “superior to the CpG adjuvants of type A and the CpG adjuvants of type C”. In addition, the “immune effect: induced production level of HBcAg-specific IFN-γ” value (from here on “immune effect … of HBcAg-specific IFN-γ”) in experiment [3] was “superior to the CpG adjuvants of type A and the CpG adjuvants of type C”. Consider “TCGACGTTCGTCGTTCGTCGTTC (SEQ ID NO: 9) [CpG 684]”, for which the “immune effect … of HBsAg-specific IFN-γ” value in experiment [2] was “superior to the CpG adjuvants of type A and the CpG adjuvants of type C”. The “immune effect … of HBcAg-specific IFN-γ” value in experiment [3] is “superior to the CpG adjuvants of type A and the CpG adjuvants of type C”.

Regarding “TCGTCGTTTTGTCGTTTTGTCGTT (SEQ ID NO: 4) [CpG 7909]”, the “immune effect … of HBsAg-specific IFN-γ” value in experiment [2] is “superior to the CpG adjuvants of type A and the CpG adjuvants of type C”. Also, the “immune effect … of HBcAg-specific IFN-γ” value in experiment [3] was “superior to the CpG adjuvants of type A and the CpG adjuvants of type C”. Consider “TGACTGTGAACGTTCGAGATGA (SEQ ID NO: 3) [CpG 1018]”, for which the “immune effect … of HBsAg-specific IFN-γ” value in experiment [2] was “superior to the CpG adjuvants of type A and the CpG adjuvants of type C”. In addition, the “immune effect … of HBcAg-specific IFN-γ” value in experiment [3] was “superior to the CpG adjuvants of type A and the CpG adjuvants of type C”. In the case of “TGTCGTCGTCGTTTGTCGTTTGTCGTT (SEQ ID NO: 11) [CPG D2]”, in experiment [2], the “immune effect … of HBsAg-specific IFN-γ” value was “lower than those induced by the CpG adjuvants of type A and the CpG adjuvants of type C”. Besides, the “immune effect … of HBcAg-specific IFN-γ” value in experiment [3] is “lower than those induced by the CpG adjuvants of type A and the CpG adjuvants of type C”.
